The values that follow come from patent US9820487B2, “Abscinazole” (NATIONAL UNIVERSITY CORPORATION SHIZUOKA UNIVERSITY, priority 2014, dated 2017).

Test [1] deals with T1, abscisic acid 8′-hydroxylase CYP707A3 (Arabidopsis thaliana, UniProt Q9FH76).
T1 sequence (Q9FH76 1-463): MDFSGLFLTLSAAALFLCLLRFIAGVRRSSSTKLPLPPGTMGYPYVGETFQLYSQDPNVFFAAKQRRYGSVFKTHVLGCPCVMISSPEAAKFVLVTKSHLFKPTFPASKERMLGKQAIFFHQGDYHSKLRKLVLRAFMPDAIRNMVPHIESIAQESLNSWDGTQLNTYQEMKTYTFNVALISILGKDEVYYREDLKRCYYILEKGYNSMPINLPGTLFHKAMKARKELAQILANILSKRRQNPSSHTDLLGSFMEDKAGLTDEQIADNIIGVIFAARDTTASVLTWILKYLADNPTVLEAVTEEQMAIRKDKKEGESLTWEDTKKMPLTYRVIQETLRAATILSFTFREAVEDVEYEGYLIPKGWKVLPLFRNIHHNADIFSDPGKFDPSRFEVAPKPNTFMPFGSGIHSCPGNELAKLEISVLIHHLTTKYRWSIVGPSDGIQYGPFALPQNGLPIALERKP
As to the kind of experiment: Abscisic acid 8′-hydroxylase CYP707A3 inhibition test. In kind it is biochemical. The settings on record: CYP707A3 + NADPH-P450 reductase ATR1, substrate ABA, 30° C. 10 minutes; IC50 calculated from two concentrations. How it is done: In a 1.5 mL microtube, 10 μL of a solution of substrate 250 μM ABA in potassium/phosphate buffer (KPB), 5 μL of a solution of the sample in dimethylformamide, 435 μL of KPB and 40 μL of abscisic acid 8′-hydroxylase CYP707A3+NADPH-P450 reductase ATR1 were put and heated at 30° C. for 10 minutes. 10 μL of a solution of 5 mg/mL NADPH in KPB was added thereto thereby starting the enzyme reaction. The reaction was carried out at 30° C. for 10 minutes at a rotation speed of 1000 rpm, and 25 μL of an aqueous solution of 1 M sodium hydroxide was added thereto thereby terminating the reaction. The reaction solution was allowed to stand at 4° C. for 30 minutes and subsequently 50 μL of 1 M hydrochloric acid was added thereto to convert the enzyme metabolite to phaseic acid (PA). The enzyme reaction solution was subjected to an OASIS HLB cartridge (1 cc, 30 mg; washed with 1 mL of methanol (1% acetic acid) and equilibrated with 1 mL of water (1% acetic acid)) and washed with 1 mL of 10% methanol/water (1% acetic acid) thereby eluting phaseic acid with 1 mL of methanol (1% acetic acid). The eluate was concentrated under reduced pressure (toluene was added to azeotrope acetic acid), the obtained substance was dissolved in 50 μL of methanol. 20 μL of the solution was subjected to HPLC (column, YMC-Pack Hydrosphere C18 (6 mm inner diameter×150 mm length); flow rate 1 mL/min; detection 254 nm) analysis. The CYP707A3 inhibition rate of the samples was calculated in accordance with the following formula (3). Note that dimethylformamide was used for the control in place of the sample solution. Each sample was tested with two different concentrations to calculate the 50% inhibition concentration (IC50) based on the enzyme inhibition rates thereof The results are shown in Table 1.
Enzyme inhibition rate (%)={1-(PA peak area of each sample/PA peak area of control)}×100 . . . (3)

Test [2] deals with seeds of thale cress (Arabidopsis thaliana, Col-0). The test is described as follows: Thale cress seed germination inhibition test (2). The class given is in vivo. The settings on record: 120 hours after seed plantation (FIG. 3). How it is done:
Seeds of thale cress (Arabidopsis thaliana, Col-0) were immersed in […] an aqueous solution of 70% ethanol for 30 minutes, subsequently in 500 μL of 100% ethanol for 1 minute, washed three times in 1 mL of distilled water, then immersed in distilled water and, in a dark place, verbalized at 4° C. for 3 days. A solution of the sample in methanol and a solution of ABA in methanol were put in a 1.5 mL microtube, and methanol was removed therefrom under reduced pressure. An aqueous solution of 0.5% agar (containing 1/2 MS medium inorganic salts) at 70° C. was added thereto, followed by stirring the resultant. The obtained solution was placed in a 96-well plate to provide the medium containing the sample. 20 to 30 vernalized seeds of thale cress were planted in each well and cultured at 22° C. under continuous light to monitor the number of seeds germinated over time. The germination rate was calculated in accordance with the following formula (1). Note that the medium prepared using methanol in the same manner as above was used as an untreated control and a germination rate of 100% was achieved 72 hours later from the seed plantation. Germination rates 72 hours later from the seed plantation are shown in FIG. 1 and initial growth conditions of thale cress 120 hours later are shown in FIG. 2.
Germination rate (%)=Number of seeds germinated/Number of seeds planted×100 . . . (1) […]

The subject of test [3] is thale cress (Arabidopsis thaliaria, Col-0). As to the kind of experiment: Thale cress growth test (survival after dry treatment). The class given is in vivo. As to the method: Five plant bodies of 2-week old thale cress (Arabidopsis thaliaria, Col-0) grown in Gelzan medium (containing MS medium mixed salts and 1% sucrose) were transplanted to a 200 mL-plastic pot containing a culture soil obtained by mixing vermiculite and premix in 1:1 and grown at 22° C. for 2 weeks under the condition of 16 hour light period—8 hour dark period. At this stage, the moisture content was adjusted so that the mass of the pot containing the plant and the culture soil was to be about 150 g. 50 ml, of a 50 μM aqueous solution of the (−) form of Example 1 (containing 0.05% Tween-20 and 0.2% MeOH) was sprayed to the above-ground part on 27 pots (135 seedlings of thale cress in total) once a day for 3 days. The pots on which above-ground part were sprayed with 50 mL of an aqueous solution free from the above compound (containing 0.05% Tween-20 and 0.2% MeOH) once a day for 3 days were used as controls. The pots were dry-treated for 12 days and subsequently watered, and the number of plant bodies survived 3 days later was counted, from which the survival rate was calculated in accordance with the following formula (5).
Survival rate (%)=Number of plant bodies survived (piece)/Total number of plant bodies (piece)×100 . . .(5)

`COCCOCCOCCOCC#Cc1cccc(/C=C(\[C@@H](O)C(C)(C)C)n2cncn2)c1` [Example 1 (−) Form, (−)-(S)-(E)-1-(3-(2,5,8,11-tetraoxatetradec-13-yn-14-yl)phenyl)-4,4-dimethyl-2-(1H-1,2,4-triazol-1-yl)pent-1-en-3-ol]: the potency estimated from few doses in test [1] is 64 nM. In test [2], the “seed germination inhibition compared with (−) form of Comparative Example 1” value is “can inhibit the seed germination even in lower concentrations”. In addition, the “survival rate after dry treatment” value in test [3] (50 μM aqueous solution sprayed once a day for 3 days, dry-treated 12 days, watered, counted 3 days later, control 15%) is given as 75%. Besides, the “withering due to dryness” value in test [3] (sprayed to thale cress, 50 μM, dry treatment 12 days) is “reduced”.
